In patent publication US20230066011A1, “PYRROLOPYRIMIDINE DERIVATIVE, AND PHARMACEUTICAL COMPOSITION FOR PREVENTING OR TREATING PROTEIN KINASE-RELATED DISEASE COMPRISING SAME AS ACTIVE INGREDIENT” (VORONOI CO., LTD., priority 2019, published 2023):

Legend:
Assay type in all cases: biochemical
[1] = biological target: T1, human GST-DYRK1A (Homo sapiens, UniProt Q13627); assay: GST-DYRK1A enzyme inhibition, ADP-Glo kinase assay; conditions: ATP 10 μM, GST-DYRK1A full length, read-out: DYRK1 IC50
T1 construct: purified human GST-DYRK1A (full length, Thermo Scientifics) enzyme; purchased Thermo Scientifics
Procedure, shortened: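 Full-length human GST-DYRK1A (10 ng) with 10 μM ATP and specific substrate in 40 mM Tris-HCl pH 7.4, 20 mM MgCl2, 0.5 mg/mL BSA, 50 μM DTT, 1 h at 25 °C. ADP formation read by ADP-Glo luminescence relative to solvent control; IC50 from three data sets.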

[2] = biological target: T2, human GST-CLK1 (Homo sapiens, UniProt P49759); assay: GST-CLK1 enzyme inhibition, ADP-Glo kinase assay; conditions: ATP 10 μM, GST-CLK1 129-end
T2 construct: purified human GST-CLK1 (129-end, SignalChem) enzyme; purchased SignalChem
T2 sequence (P49759 129-484 limits assumed): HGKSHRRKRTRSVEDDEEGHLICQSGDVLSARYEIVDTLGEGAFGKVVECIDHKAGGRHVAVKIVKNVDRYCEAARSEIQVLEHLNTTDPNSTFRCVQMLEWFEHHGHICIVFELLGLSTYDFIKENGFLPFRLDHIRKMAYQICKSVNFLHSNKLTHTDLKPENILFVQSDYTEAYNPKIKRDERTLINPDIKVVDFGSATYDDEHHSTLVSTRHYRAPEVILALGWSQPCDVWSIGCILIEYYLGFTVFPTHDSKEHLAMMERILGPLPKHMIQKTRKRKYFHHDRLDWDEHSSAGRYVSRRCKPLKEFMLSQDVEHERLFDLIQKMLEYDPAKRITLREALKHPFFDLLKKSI
Procedure, shortened: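 Human GST-CLK1 (129-end, 3 ng) reacted with substrate and 10 μM ATP for 1 h at 25° C in 40 mM Tris-HCl pH 7.4, 20 mM MgCl2, 0.5 mg/mL BSA, 50 μM DTT. ADP-Glo luminescence was normalised to solvent control; IC50 (nM) from 3 data sets.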

[3] = biological target: LRRK2 (Homo sapiens, UniProt Q5S007); assay: LRRK2 enzyme inhibition, ADP-Glo kinase assay; design: purchased Invitrogen PR8604B; conditions: ATP 10 μM
Chain of LRRK2 (Q5S007 970-2527 limits assumed): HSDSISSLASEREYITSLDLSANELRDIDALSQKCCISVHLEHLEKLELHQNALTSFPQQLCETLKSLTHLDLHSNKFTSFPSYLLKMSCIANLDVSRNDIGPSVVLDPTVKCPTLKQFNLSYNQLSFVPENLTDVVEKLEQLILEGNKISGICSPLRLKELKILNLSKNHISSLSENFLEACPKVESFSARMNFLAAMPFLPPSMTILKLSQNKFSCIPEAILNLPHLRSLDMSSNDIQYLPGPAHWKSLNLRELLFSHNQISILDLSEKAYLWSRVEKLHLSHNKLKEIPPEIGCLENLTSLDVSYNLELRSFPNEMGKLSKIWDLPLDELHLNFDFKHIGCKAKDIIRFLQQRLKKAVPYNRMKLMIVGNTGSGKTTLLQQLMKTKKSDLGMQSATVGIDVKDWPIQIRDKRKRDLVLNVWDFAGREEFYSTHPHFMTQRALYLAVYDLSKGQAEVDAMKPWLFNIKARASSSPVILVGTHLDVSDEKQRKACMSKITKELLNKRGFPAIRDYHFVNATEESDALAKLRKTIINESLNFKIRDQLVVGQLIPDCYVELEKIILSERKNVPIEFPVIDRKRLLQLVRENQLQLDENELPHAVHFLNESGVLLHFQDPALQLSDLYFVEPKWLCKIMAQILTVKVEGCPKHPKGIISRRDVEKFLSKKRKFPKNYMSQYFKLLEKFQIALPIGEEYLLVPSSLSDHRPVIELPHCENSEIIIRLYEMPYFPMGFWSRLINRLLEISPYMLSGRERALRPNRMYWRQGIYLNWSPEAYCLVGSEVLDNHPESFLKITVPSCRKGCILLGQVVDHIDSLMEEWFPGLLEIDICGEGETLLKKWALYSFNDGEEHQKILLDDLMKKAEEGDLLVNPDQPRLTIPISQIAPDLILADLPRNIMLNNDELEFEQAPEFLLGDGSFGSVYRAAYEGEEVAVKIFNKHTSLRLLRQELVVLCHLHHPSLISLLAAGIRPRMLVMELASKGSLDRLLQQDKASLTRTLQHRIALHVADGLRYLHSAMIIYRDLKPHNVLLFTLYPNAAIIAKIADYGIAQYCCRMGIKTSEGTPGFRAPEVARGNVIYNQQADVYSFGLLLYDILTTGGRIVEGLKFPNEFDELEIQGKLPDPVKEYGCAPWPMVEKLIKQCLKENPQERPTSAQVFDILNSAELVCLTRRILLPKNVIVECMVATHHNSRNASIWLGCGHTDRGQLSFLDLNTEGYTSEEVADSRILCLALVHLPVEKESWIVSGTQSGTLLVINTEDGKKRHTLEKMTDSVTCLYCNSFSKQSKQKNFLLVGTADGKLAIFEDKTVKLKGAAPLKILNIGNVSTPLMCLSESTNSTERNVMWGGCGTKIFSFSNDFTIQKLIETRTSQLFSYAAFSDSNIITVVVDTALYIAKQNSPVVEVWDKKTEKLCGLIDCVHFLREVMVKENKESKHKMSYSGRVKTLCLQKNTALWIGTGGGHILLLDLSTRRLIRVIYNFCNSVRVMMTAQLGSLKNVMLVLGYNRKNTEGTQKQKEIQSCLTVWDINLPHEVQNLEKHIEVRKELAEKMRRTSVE
Procedure: To evaluate an inhibitory activity of the compound according to the present invention against LRRK2, LRRK2 (G2019S), DYRK1, CLK1, and TTK kinases, experiments were performed as follows.
Each of the Example compounds was reacted with a purified human LRRK2 (Invitrogen #PR8604B) enzyme to evaluate an ability to inhibit an enzyme using a method as described below. A composition of 40 mM Tris-HCl (pH 7.4), 20 mM MgCl2, 0.5 mg/mL BSA, and 50 μM DTT was used as a reaction buffer, and all reactions of test substances were performed in the reaction buffer. Each of the compounds was diluted […] from a 10 mM DMSO stock using a serial dilution method, and enzyme activities were measured at final compound concentrations of 50, 10, 2, 0.4, 0.08, 0.016, 0.0032, 0.00064, 0.000128, 0.0000256, 0.00000512, and 0.000001024 μM. In the test, purified ATP (10 μM) and an enzyme substrate (0.2 μg) were reacted with a human LRRK2 (25 ng) enzyme at 25° C. for 2 hours, and the enzyme activities were determined using an in vitro ADP-Glo™ kinase assay (Promega). An enzyme-activity reaction solution, an ADP-Glo reaction solution, and an enzyme-ability detection solution were reacted at a ratio of 2:2:1 to measure a degree of inhibition of the enzyme activity with luminescence. The degree of inhibition of the enzyme activity according to the treatment concentration of each of the compounds was calculated based on the fluorescence of the enzyme activity of the solvent control which was not treated with the compound. In this case, the concentration of each of the compounds inhibiting 50% of the enzyme activity was determined to be an IC50 (nM) value, and calculated using Prism (Version 5.01; GraphPad) software.

[4] = biological target: LRRK2 (G2019S) (Homo sapiens, UniProt Q5S007, G2019S); assay: LRRK2 G2019S enzyme inhibition, ADP-Glo kinase assay; design: purchased SignalChem L10-12GG; conditions: ATP 25 μM
Chain of LRRK2 (G2019S) (Q5S007 970-2527 G2019S limits assumed): as the sequence (Q5S007 970-2527 limits assumed) above, with G1050S counted along it
Procedure, shortened: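 Purified human LRRK2 G2019S (16 ng) with 25 μM ATP and 0.2 μg substrate, 2 h at 25° C. in Tris-HCl pH 7.4, MgCl2, BSA, DTT buffer; compounds at 12 final concentrations, 50 μM down to 0.000001024 μM. ADP-Glo luminescence versus solvent control gave IC50.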

Compound | IC50 [1] | IC50 [2] | IC50 [3] | IC50 [4]
COc1cc(S(C)(=O)=O)ccc1Nc1nc(NC2CCOCC2)c2c(C#N)c[nH]c2n1 [Example 109, 2-((2-methoxy-4-(methylsulfonyl)phenyl)amino)-4-((tetrahydro-2H-pyran-4-yl)amino)-7H-pyrrolo[2,3-d]pyrimidine-5-carbonitrile] | 301 to 1000 nM | 301 to 1000 nM | < 100 nM | 
CC[C@H](C)Nc1nc(Nc2ccc(S(=O)(=O)N3CCOCC3)cc2OC)nc2[nH]ccc12 [Example 60, (S)-N^4-(sec-butyl)-N^2-(2-methoxy-4-(morpholinosulfonyl)phenyl)-7H-pyrrolo[2,3-d]pyrimidine-2,4-diamine] | 301 to 1000 nM | 301 to 1000 nM |  | 101 to 300 nM
O=C(c1ccc(Nc2nc(NC3CCC3)c3cc[nH]c3n2)c2c1OCCO2)N1CCOCC1 [Example 47, (8-((4-(cyclobutylamino)-7H-pyrrolo[2,3-d]pyrimidin-2-yl)amino)-2,3-dihydrobenzo[b][1,4]dioxin-5-yl)(morpholino)methanone] | 301 to 1000 nM | 301 to 1000 nM |  | < 100 nM
COCC(C)(C)Nc1nc(Nc2ccc(S(=O)(=O)N3CCOCC3)cc2OC)nc2[nH]ccc12 [Example 34, N^4-(1-methoxy-2-methylpropan-2-yl)-N^2-(2-methoxy-4-(morpholinosulfonyl)phenyl)-7H-pyrrolo[2,3-d]pyrimidine-2,4-diamine] | 301 to 1000 nM | 301 to 1000 nM |  | < 100 nM
COc1cc(S(=O)(=O)N2CCC(N3CCOCC3)CC2)ccc1Nc1nc(NCC2CCCC2)c2cc[nH]c2n1 [Example 41, N^4-(cyclopentylmethyl)-N^2-(2-methoxy-4-((4-morpholinopiperidin-1-yl)sulfonyl)phenyl)-7H-pyrrolo[2,3-d]pyrimidine-2,4-diamine 2,2,2-trifluoroacetate] | 301 to 1000 nM | 301 to 1000 nM |  | < 100 nM
COc1cc(S(=O)(=O)N2CCOCC2)ccc1Nc1nc(NCC(C)C)c2cc[nH]c2n1 [Example 10, N^4-isobutyl-N^2-(2-methoxy-4-(morpholinosulfonyl)phenyl)-7H-pyrrolo[2,3-d]pyrimidine-2,4-diamine] | 301 to 1000 nM | 301 to 1000 nM |  | < 100 nM
O=C(c1ccc(Nc2nc(NCC3CC3)c3cc[nH]c3n2)c2c1OCCO2)N1CCOCC1 [Example 53, (8-((4-((cyclopropylmethyl)amino)-7H-pyrrolo[2,3-d]pyrimidin-2-yl)amino)-2,3-dihydrobenzo[b][1,4]dioxin-5-yl)(morpholino)methanone] | 301 to 1000 nM | 301 to 1000 nM |  | < 100 nM
O=C(c1ccc(Nc2nc(NCC3CCCC3)c3c(C(F)(F)F)c[nH]c3n2)c2c1OCCO2)N1CCN(C2COC2)CC1 [Example 425, (8-((4-((cyclo-pentylmeth-yl)amino)-5-(trifluoromethyl)-7H-pyrrolo[2,3-d]pyrimidin-2-yl)amino)-2,3-dihydrobenzo[b] [1,4]dioxin-5-yl) (4-(oxetan-3-yl)piperazin-1-yl)methanone] | 301 to 1000 nM | 301 to 1000 nM |  | < 100 nM
COc1cc(S(=O)(=O)N2CCOCC2)ccc1Nc1nc(NC(C)C)c2cc[nH]c2n1 [Example 13, N^4-isopropyl-N^2-(2-methoxy-4-(morpholinosulfonyl)phenyl)-7H-pyrrolo[2,3-d]pyrimidine-2,4-diamine 2,2,2-trifluoroacetate] | 301 to 1000 nM | 301 to 1000 nM |  | < 100 nM
O=C(c1ccc(Nc2nc(NC3CC3)c3c(C(F)(F)F)c[nH]c3n2)c2c1CCO2)N1CCOCC1 [Example 433, (7-((4-(cyclo-propylamino)-5-(trifluoromethyl)-7H-pyrrolo[2,3-d]pyrimidin-2-yl)amino)-2,3-dihydrobenzo-furan-4-yl) (morpholino) methanone] | 301 to 1000 nM | < 100 nM |  | < 100 nM
COc1cc(S(=O)(=O)N2CCC(N3CCOCC3)CC2)ccc1Nc1nc(NCC(C)C)c2cc[nH]c2n1 [Example 11, N^4-isobutyl-N^2-(2-methoxy-4-((4-morpholinopiperidin-1-yl)sulfonyl)phenyl)-7H-pyrrolo[2,3-d]pyrimidine-2,4-diamine] | 301 to 1000 nM | 301 to 1000 nM |  | < 100 nM
CC(C)CNc1nc(Nc2ccc(C(=O)N3CCOCC3)c3c2OCCO3)nc2[nH]ccc12 [Example 44, (8-((4-(isobutylamino)-7H-pyrrolo[2,3-d]pyrimidin-2-yl)amino)-2,3-dihydrobenzo[b][1,4]dioxin-5-yl)(morpholino)methanone] | 301 to 1000 nM | 301 to 1000 nM |  | < 100 nM
COCCNc1nc(Nc2ccc(S(C)(=O)=O)cc2OC)nc2[nH]ccc12 [Example 21, N^2-(2-methoxy-4-(methylsulfonyl)phenyl)-N^4-(2-methoxyethyl)-7H-pyrrolo[2,3-d]pyrimidine-2,4-diamine 2,2,2-trifluoroacetate] | 301 to 1000 nM | 301 to 1000 nM |  | < 100 nM
COc1cc(S(C)(=O)=O)ccc1Nc1nc(NC2CC2)c2cc[nH]c2n1 [Example 55, N^4-cyclopropyl-N^2-(2-methoxy-4-(methylsulfonyl)phenyl)-7H-pyrrolo[2,3-d]pyrimidine-2,4-diamine] | 301 to 1000 nM | 301 to 1000 nM |  | < 100 nM
COCCNc1nc(Nc2ccc(C(=O)N3CCOCC3)c3c2OCCO3)nc2[nH]ccc12 [Example 46, (8-((4-((2-methoxyethyl)amino)-7H-pyrrolo[2,3-d]pyrimidin-2-yl)amino)-2,3-dihydrobenzo[b][1,4]dioxin-5-yl)(morpholino)methanone 2,2,2-trifluoroacetate] | 301 to 1000 nM | 301 to 1000 nM |  | < 100 nM
COc1cc(S(=O)(=O)N2CCOCC2)ccc1Nc1nc(NC2CCCC2)c2cc[nH]c2n1 [Example 25, N^4-cyclopentyl-N^2-(2-methoxy-4-(morpholinosulfonyl)phenyl)-7H-pyrrolo[2,3-d]pyrimidine-2,4-diamine 2,2,2-trifluoroacetate] | 301 to 1000 nM | 301 to 1000 nM |  | < 100 nM
COc1cc(P2(=O)CCN(C3COC3)CC2)ccc1Nc1nc(NC2CCC2)c2c(C#N)c[nH]c2n1 [Example 288, 4-(cyclo-butylamino)-2-((2-methoxy-4-(1-(oxetan-3-yl)-4-oxido-1,4-azaphosphinan-4-yl)phenyl)amino)-7H-pyrrolo[2,3-d]pyrimidine-5-carbonitrile] | < 100 nM | < 100 nM |  | < 100 nM
COc1cc(P(C)(C)=O)ccc1Nc1nc(NC2CCOCC2)c2c(C(F)(F)F)c[nH]c2n1 [Example 389, (3-methoxy-4-((4-((tetrahydro-2H-pyran-4-yl)amino)-5-(trifluoromethyl)-7H-pyrrolo[2,3-d]pyrimidin-2-yl)amino)phenyl) dimethyl-phosphine oxide] | 301 to 1000 nM | < 100 nM |  | < 100 nM
COc1cc(S(=O)(=O)N2CCC(N3CCOCC3)CC2)ccc1Nc1nc(NCC2CC2)c2cc[nH]c2n1 [Example 32, N^4-(cyclopropylmethyl)-N^2-(2-methoxy-4-((4-morpholinopiperidin-1-yl)sulfonyl)phenyl)-7H-pyrrolo[2,3-d]pyrimidine-2,4-diamine] | 301 to 1000 nM | 301 to 1000 nM |  | < 100 nM
COc1cc(P2(=O)CCN(C3COC3)CC2)ccc1Nc1nc(NCCS(C)(=O)=O)c2c(C#N)c[nH]c2n1 [Example 314, 2-((2-methoxy-4-(1-(oxetan-3-yl)-4-oxido-1,4-azaphosphinan-4-yl)phenyl)amino)-4-((2-(methyl-sulfonyl)eth-yl)amino)-7H-pyrrolo[2,3-d]pyrimidine-5-carbonitrile] | 301 to 1000 nM | 301 to 1000 nM |  | < 100 nM
